One assay concerns the target hNav1.2 (Homo sapiens, UniProt Q99250). Put plainly: Whole-cell patch-clamp INa inhibition, hNav1.2 in HEK293 cells. Format: cell-based. For orientation: The patch-clamp technique gives a direct electrical read-out from membranes.
Assay [1] concerns the target NavMs E227D mutant channel (Magnetococcus marinus, UniProt A0L5S6, E227D). Put plainly: cell-based.
The target of assay [2] is NavMs D220E mutant channel (Magnetococcus marinus, UniProt A0L5S6, D220E). Put plainly: cell-based. It counts as cell-based.
For assay [3], the target named is T1, NavMs (Magnetococcus marinus, UniProt A0L5S6). Kind of assay: cell-based.
For assay [4] the following is noted: cited from earlier work.
The target of assay [5] is T1, NavMs. Put plainly: Mechanism and kinetics of NavMs INa inhibition. It counts as cell-based.
Assay [6] relates to endogenous sodium currents of MDA-MB-231 cells (nNav1.5, Nav1.7). Kind of assay: Voltage clamp of endogenous sodium currents in MDA-MB-231 cells. As to conditions: Homo sapiens, MDA-MB-231, read-out: Potency of sodium current inhibition (IC50), MDA-MD-231 cells. Format: cell-based.
In the next assay the test system is ER. As to conditions: cited from earlier work.
In assay [7] the target is NavMs F208L mutant (NavMsL) (Magnetococcus marinus) (UniProt A0L5S6). Put plainly: crystal structure.

The source of these data is article PMC7980221 (Molecular Cell, 2021).

Where two headings read alike, the source gives them in different places.

Chain of hNav1.2 (Q99250 whole entry): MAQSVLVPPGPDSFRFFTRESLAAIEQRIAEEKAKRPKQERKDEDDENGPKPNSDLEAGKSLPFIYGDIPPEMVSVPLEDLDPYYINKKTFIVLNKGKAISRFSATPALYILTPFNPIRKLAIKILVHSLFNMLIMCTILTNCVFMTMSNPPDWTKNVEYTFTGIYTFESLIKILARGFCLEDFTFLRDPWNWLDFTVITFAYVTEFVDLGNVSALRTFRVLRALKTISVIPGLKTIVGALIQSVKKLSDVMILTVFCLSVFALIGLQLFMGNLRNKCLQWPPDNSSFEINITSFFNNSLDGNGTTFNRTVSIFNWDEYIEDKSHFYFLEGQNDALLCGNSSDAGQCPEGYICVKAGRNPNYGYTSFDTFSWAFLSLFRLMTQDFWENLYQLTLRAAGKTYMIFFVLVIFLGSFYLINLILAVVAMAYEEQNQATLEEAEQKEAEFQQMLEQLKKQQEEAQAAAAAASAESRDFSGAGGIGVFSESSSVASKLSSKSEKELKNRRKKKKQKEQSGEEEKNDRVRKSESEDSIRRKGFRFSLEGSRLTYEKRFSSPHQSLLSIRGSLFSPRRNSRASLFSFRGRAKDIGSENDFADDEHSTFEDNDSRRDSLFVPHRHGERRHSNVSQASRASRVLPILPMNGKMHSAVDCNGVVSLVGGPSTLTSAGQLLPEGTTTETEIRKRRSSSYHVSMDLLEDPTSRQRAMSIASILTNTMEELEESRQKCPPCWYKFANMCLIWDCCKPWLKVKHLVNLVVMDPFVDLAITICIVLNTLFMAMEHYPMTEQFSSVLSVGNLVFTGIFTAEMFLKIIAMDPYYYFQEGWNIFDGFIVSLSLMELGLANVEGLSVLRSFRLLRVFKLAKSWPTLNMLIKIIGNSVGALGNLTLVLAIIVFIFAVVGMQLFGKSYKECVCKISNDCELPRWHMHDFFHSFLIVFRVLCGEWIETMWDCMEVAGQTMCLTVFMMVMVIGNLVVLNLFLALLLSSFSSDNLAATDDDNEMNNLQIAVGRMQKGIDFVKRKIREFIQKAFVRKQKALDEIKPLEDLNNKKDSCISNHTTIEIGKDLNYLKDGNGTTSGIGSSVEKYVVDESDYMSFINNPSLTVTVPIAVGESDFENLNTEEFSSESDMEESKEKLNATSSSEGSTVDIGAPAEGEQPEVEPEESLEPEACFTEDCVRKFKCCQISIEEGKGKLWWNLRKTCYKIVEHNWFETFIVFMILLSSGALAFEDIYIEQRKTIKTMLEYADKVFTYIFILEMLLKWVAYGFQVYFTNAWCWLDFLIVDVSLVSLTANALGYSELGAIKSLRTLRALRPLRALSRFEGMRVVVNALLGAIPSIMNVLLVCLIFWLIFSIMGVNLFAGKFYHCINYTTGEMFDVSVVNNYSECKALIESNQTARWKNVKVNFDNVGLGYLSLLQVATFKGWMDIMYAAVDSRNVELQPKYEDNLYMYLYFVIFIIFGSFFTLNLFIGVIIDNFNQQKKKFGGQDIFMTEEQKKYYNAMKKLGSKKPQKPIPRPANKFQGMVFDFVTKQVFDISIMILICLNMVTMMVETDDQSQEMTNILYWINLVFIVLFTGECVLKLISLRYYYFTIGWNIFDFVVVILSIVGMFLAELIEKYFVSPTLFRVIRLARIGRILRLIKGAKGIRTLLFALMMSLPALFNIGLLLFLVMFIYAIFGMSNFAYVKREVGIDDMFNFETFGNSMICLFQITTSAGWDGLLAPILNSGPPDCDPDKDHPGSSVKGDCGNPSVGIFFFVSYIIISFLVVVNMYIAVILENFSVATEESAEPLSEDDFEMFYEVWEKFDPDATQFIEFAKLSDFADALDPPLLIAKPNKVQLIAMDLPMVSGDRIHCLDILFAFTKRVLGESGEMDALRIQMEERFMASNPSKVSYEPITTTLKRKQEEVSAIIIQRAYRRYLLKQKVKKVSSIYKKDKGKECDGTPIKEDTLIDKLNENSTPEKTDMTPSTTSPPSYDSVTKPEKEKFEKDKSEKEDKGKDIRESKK

By IC50 is commonly meant the concentration at which inhibition is half-maximal. Consider `CC/C(=C(\c1ccc(O)cc1)c1ccc(OCCN(C)C)cc1)c1ccccc1` [4OH-Tam, 4-hydroxytamoxifen], for which the IC50 at hNav1.2 was found to be 2100 ± 140 nM; in assay [1] it was 2800 ± 160 nM; in assay [2], 3600 ± 140 nM; at NavMs [3], 297 ± 75 nM; in assay [6], 890 nM. For the same compound, the “Average slope of the Hill fit, NaV1.2, HEK cells” value (“Average slope … NaV1.2, HEK cells” below) on hNav1.2 (value in parentheses, error SD) came to 0.96 ± 0.1. For the same compound, the “Average slope of the Hill fit, E227D, HEK cells” value in [1] (value in parentheses, error SD) is recorded as 1.13 ± 0.1. For the same compound, the “Loss in free energy of binding (ΔG°)” value in assay [2] came to 1.5 kcal/mol. For the same compound, the “Average slope of the Hill fit, D220E, HEK cells” value in assay [2] (value in parentheses, error SD) is given as 1.17 ± 0.1. Further, the “Average slope of the Hill fit, NavMs, HEK cells” value (shortened to “Average slope … NavMs, HEK cells”) on NavMs [3] (value in parentheses, error SD) is recorded as 1.14 ± 0.1. Besides, in assay [4], the “Potency in vivo as an anti-estrogen relative to tamoxifen” value is given as 30- to 100 fold. The “Delay of rate of recovery from inactivation (τrec) following drug treatment” value on NavMs [5] is on record as around 10 fold. In addition, on NavMs [5], the “INa inhibition with 7 ms vs 150 ms depolarization trains, times less” value came out at 3.4 times. Further, the “Kinetics of INa inhibition (τon), times slower than cadmium” value on NavMs [5] worked out at 16 times. Further, at NavMs [5], the “Shift of voltage dependence of activation and inactivation” value was “no significant shifts in either parameter”.
For the compound `CC/C(=C(/c1ccc(O)cc1)c1ccc(OCCN(C)C)cc1)c1ccccc1.Cl` [E-4OH-Tam, E-4-Hydroxytamoxifen hydrochloride], the “Average slope … NaV1.2, HEK cells” value on hNav1.2 (value in parentheses, error SD) stood at 0.94 ± 0.1. Further, the “Average slope … NavMs, HEK cells” value on NavMs [3] (value in parentheses, error SD) turned out to be 1.15 ± 0.1.
Turning to `CC/C(=C(\c1ccc(O)cc1)c1ccc(OCCNC)cc1)c1ccccc1` [Endoxifen], the IC50 at hNav1.2 is 3100 ± 130 nM; against NavMs [3], 328 ± 89 nM. In addition, the “Average slope … NaV1.2, HEK cells” value at hNav1.2 (value in parentheses, error SD) was 0.97 ± 0.1. Further, the “Average slope … NavMs, HEK cells” value at NavMs [3] (value in parentheses, error SD) is reported as 1.09 ± 0.1.
For `CC/C(=C(\c1ccccc1)c1ccc(OCCNC)cc1)c1ccccc1` [NM-Tam, N-desmethyltamoxifen], on hNav1.2, the “Average slope … NaV1.2, HEK cells” value is 3.2 ± 0.12 μM (0.96 ± 0.1). Further, the IC50 on hNav1.2 (read-out: Potency of sodium current inhibition (IC50), NaV1.2, HEK cells) was 3200 nM; on NavMs [3] (read-out: Potency of sodium current inhibition (IC50), NavMs, HEK cells), 1100 nM. For the same compound, the “Affinity for ER, times lower than that of tamoxifen” value in the assay with ER is around 100 times. Moreover, the “Average slope … NavMs, HEK cells” value at NavMs [3] is 1.1 ± 0.16 μM (1.11 ± 0.1).
Turning to `CC/C(=C(\c1ccccc1)c1ccc(OCCN(C)C)cc1)c1ccccc1` [Tamoxifen], at hNav1.2, the “Average slope … NaV1.2, HEK cells” value is 2.4 ± 0.11 μM (1.05 ± 0.1) and half-maximal inhibition (IC50) was put at 2400 nM.
In the case of `CC/C(=C(\c1ccc(O)cc1)c1ccc(OCCN(C)C)cc1)c1ccccc1.Cl` [Z-4OH-Tam, Z-4-Hydroxytamoxifen hydrochloride], the “Average slope … NaV1.2, HEK cells” value at hNav1.2 (value in parentheses, error SD) came out at 0.95 ± 0.1. Further, on NavMs [3] (value in parentheses, error SD), the “Average slope … NavMs, HEK cells” value stood at 1.05 ± 0.1.
In general, stoichiometry N refers to a count of units in the complex or per binding partner. In the case of “NavMs F208L mutant (NavMsL) (from UniProt A0L5S6 1-274) (natural protein)”, the stoichiometry N in assay [7] came out at 4.
